Tested on: NL-RLuc virus
Test: Inhibition of HIV replication (NL-RLuc virus, luciferase readout in MT-2 cells)
Assay type: cell-based
Settings: Human immunodeficiency virus 1, MT2, 120 h, read-out: Activity
Text: Inhibition of HIV Replication:
A recombinant NL-RLuc proviral clone was constructed in which a section of the nef gene from NL4-3 was replaced with the Renilla Luciferase gene. This virus is fully infectious and can undergo multiple cycles of replication in cell culture. In addition, the luciferous reporter provides a simple and easy method for quantitating the extent of virus growth and consequently, the antiviral activity of test compounds. The plasmid pNLRLuc contains the proviral NL-Rluc DNA cloned into pUC18 at the PvuII site. The NL-RLuc virus was prepared by transfection of 293T cells with the plasmid pNLRLuc. Transfections were performed using the LipofectAMINE PLUS kit from Invitrogen (Carlsbad, Calif.) according to the manufacturer and the virus generated was titered in MT-2 cells. For susceptibility analyses, the titrated virus was used to infect MT-2 cells in the presence of compound, and after 5 days of incubation, cells were processed and quantitated for virus growth by the amount of expressed luciferase. Assay media was RPMI 1640 supplemented with 10% heat inactivated fetal bovine serum (FBS), 100 units/ml penicillin G/100 units/ml streptomycin, 10 mM HEPES buffer pH 7.55 and 2 mM L-glutamine. The results from at least 2 experiments were used to calculate the EC50 values. Luciferase was quantitated using the Dual Luciferase kit from Promega (Madison, Wis.). Susceptibility of viruses to compounds was determined by incubation in the presence of serial dilutions of the compound. The 50% effective concentration (EC50) was calculated by using the exponential form of the median effect equation where (Fa)=1/[1+(ED50/drug conc.)^m] (Johnson V A, Byington R T. Infectivity Assay. In Techniques in HIV Research. ed. Aldovini A, Walker BD. 71-76. New York: Stockton Press. 1990). Activity equal to A refers to a compound having an EC50<100 nM, while B and C denote compounds having an EC50 between 100 nM and 1 uM (B) or >1 uM (C).

| SMILES | EC50 [µM] |
| --- | --- |
| Cc1nc(C)c([C@H](OC(C)(C)C)C(=O)O)c(-c2cc(F)c3c(c2C)CCCO3)c1-c1ccc2c(c1)CCN(Cc1ccccc1F)C2 [Example 38, (2S)-2-(tert-Butoxy)-2-(4-(8-fluoro-5-methylchroman-6-yl)-5-(2-(2-fluorobenzyl)-1,2,3,4-tetrahydroisoquinolin-6-yl)-2,6-dimethylpyridin-3-yl)acetic Acid] | < 0.1 |
| Cc1cccc(F)c1CN1CCc2cc(-c3c(C)nc(C)c([C@H](OC(C)(C)C)C(=O)O)c3-c3ccc4c(c3)CCCO4)ccc2C1 [Example 25, (S)-2-(tert-Butoxy)-2-(4-(chroman-6-yl)-5-(2-(2-fluoro-6-methylbenzyl)-1,2,3,4-tetrahydroisoquinolin-6-yl)-2,6-dimethylpyridin-3-yl)acetic Acid] | < 0.1 |
| Cc1cc(N2CCc3cc(-c4c(C)nc(C)c([C@H](OC(C)(C)C)C(=O)O)c4-c4ccc5c(c4)CCCO5)ccc3C2)ncn1 [Example 55, (S)-2-(tert-Butoxy)-2-(4-(chroman-6-yl)-2,6-dimethyl-5-(2-(6-methylpyrimidin-4-yl)-1,2,3,4-tetrahydroisoquinolin-6-yl)pyridin-3-yl)acetic Acid] | < 0.1 |
| Cc1nc(C)c([C@H](OC(C)(C)C)C(=O)O)c(-c2ccc3c(c2)CCCO3)c1-c1ccc2c(c1)CCNC2 [Example 21, (S)-2-(tert-Butoxy)-2-(4-(chroman-6-yl)-2,6-dimethyl-5-(1,2,3,4-tetrahydroisoquinolin-6-yl)pyridin-3-yl)acetic acid] | > 1 |
| Cc1ccc(-c2c(-c3ccc4c(c3)CCN(Cc3ccccc3F)C4)c(C)nc(C)c2[C@H](OC(C)(C)C)C(=O)O)cc1 [Example 42, (S)-2-(tert-Butoxy)-2-(5-(2-(2-fluorobenzyl)-1,2,3,4-tetrahydroisoquinolin-6-yl)-2,6-dimethyl-4-(p-tolyl)pyridin-3-yl)acetic Acid] | < 0.1 |
| COc1ccc(COc2ccc(-c3c(C)nc(C)c([C@H](OC(C)(C)C)C(=O)O)c3-c3ccc(Cl)cc3)cc2)cc1 [Example 2, (S)-2-(tert-Butoxy)-2-(4-(4-chlorophenyl)-5-(4-((4-methoxybenzyl)oxy)phenyl)-2,6-dimethylpyridin-3-yl)acetic Acid] | < 0.1 |
| Cc1cc(N2CCc3cc(-c4c(C)nc(C)c([C@H](OC(C)(C)C)C(=O)O)c4-c4cc(F)c5c(c4)CCCO5)ccc3C2)ncn1 [Example 52, (S)-2-(tert-Butoxy)-2-(4-(8-fluorochroman-6-yl)-2,6-dimethyl-5-(2-(6-methylpyrimidin-4-yl)-1,2,3,4-tetrahydroisoquinolin-6-yl)pyridin-3-yl)acetic Acid] | < 0.1 |
| Cc1nc(C)c([C@H](OC(C)(C)C)C(=O)O)c(-c2cc(F)c3c(c2)CCCO3)c1-c1ccc2c(c1)CCN(c1ncnc3c1cnn3C)C2 [Example 53, (S)-2-(tert-Butoxy)-2-(4-(8-fluorochroman-6-yl)-2,6-dimethyl-5-(2-(1-methyl-1H-pyrazolo[3,4-d]pyrimidin-4-yl)-1,2,3,4-tetrahydroisoquinolin-6-yl)pyridin-3-yl)acetic Acid] | < 0.1 |
| Cc1cc(F)ccc1CN1CCc2cc(-c3c(C)nc(C)c([C@H](OC(C)(C)C)C(=O)O)c3-c3ccc4c(c3)CCCO4)ccc2C1 [Example 56, (S)-2-(tert-Butoxy)-2-(4-(chroman-6-yl)-5-(2-(4-fluoro-2-methylbenzyl)-1,2,3,4-tetrahydroisoquinolin-6-yl)-2,6-dimethylpyridin-3-yl)acetic Acid] | < 0.1 |
| Cc1nc(N)c(-c2ccc(OCCc3ccc(F)cc3)cc2)c(-c2ccc3c(c2)CCCO3)c1[C@H](OC(C)(C)C)C(=O)O [Example 59, (S)-2-(6-Amino-4-(chroman-6-yl)-5-(4-(4-fluorophenethoxy)phenyl)-2-methylpyridin-3-yl)-2-(tert-butoxy)acetic Acid] | < 0.1 |
| COc1ccc(COc2ccc(-c3c(C)nc(C)c([C@H](OC(C)(C)C)C(=O)O)c3-c3ccc(C)cc3)cc2)cc1 [Example 3, (S)-2-(tert-Butoxy)-2-(5-(4-((4-methoxybenzyl)oxy)phenyl)-2,6-dimethyl-4-(p-tolyl)pyridin-3-yl)acetic Acid] | 0.1 to 1 |
| Cc1nc(C)c([C@H](OC(C)(C)C)C(=O)O)c(-c2ccc3c(c2)C(F)(F)CCO3)c1-c1ccc(OCCc2ccc(F)cc2)cc1 [Example 36, (S)-2-(tert-Butoxy)-2-(4-(4,4-difluorochroman-6-yl)-5-(4-(4-fluorophenethoxy)phenyl)-2,6-dimethylpyridin-3-yl)acetic Acid] | < 0.1 |
| Cc1nc(C)c([C@H](OC(C)(C)C)C(=O)O)c(-c2ccc3c(c2)CCCO3)c1-c1ccc2c(c1)CCN(CCc1ccccc1F)C2 [Example 30, (S)-2-(tert-Butoxy)-2-(4-(chroman-6-yl)-5-(2-(2-fluorophenethyl)-1,2,3,4-tetrahydroisoquinolin-6-yl)-2,6-dimethylpyridin-3-yl)acetic Acid] | < 0.1 |
| CCOc1ccc(-c2c(C)nc(C)c([C@H](OC(C)(C)C)C(=O)O)c2-c2cc(F)c3c(c2C)CCCO3)cc1 [Example 7, (2S)-2-(tert-Butoxy)-2-(5-(4-ethoxyphenyl)-4-(8-fluoro-5-methylchroman-6-yl)-2,6-dimethylpyridin-3-yl)acetic Acid] | 0.1 to 1 |
| Cc1cccc(F)c1CN1CCc2cc(-c3c(CN(C)CC4CCOCC4)nc(C)c([C@H](OC(C)(C)C)C(=O)O)c3-c3ccc4c(c3)CCCO4)ccc2C1 [Example 34, (S)-2-(tert-Butoxy)-2-(4-(chroman-6-yl)-5-(2-(2-fluoro-6-methylbenzyl)-1,2,3,4-tetrahydroisoquinolin-6-yl)-2-methyl-6-((methyl((tetrahydro-2H-pyran-4-yl)methyl)amino)methyl)pyridin-3-yl)acetic Acid] | < 0.1 |
| Cc1nc(C)c([C@H](OC(C)(C)C)C(=O)O)c(-c2ccc3c(c2)CCCO3)c1-c1ccc2c(c1)CCN(Cc1ccccc1F)C2 [Example 23, (S)-2-(tert-Butoxy)-2-(4-(chroman-6-yl)-5-(2-(2-fluorobenzyl)-1,2,3,4-tetrahydroisoquinolin-6-yl)-2,6-dimethylpyridin-3-yl)acetic Acid] | < 0.1 |
| Cc1nc(C)c([C@H](OC(C)(C)C)C(=O)O)c(-c2cc(F)c3c(c2)CCCO3)c1-c1ccc(OCCc2ccc(F)cc2)cc1 [Example 48, (S)-2-(tert-Butoxy)-2-(4-(8-fluorochroman-6-yl)-5-(4-(4-fluorophenethoxy)phenyl)-2,6-dimethylpyridin-3-yl)acetic Acid] | < 0.1 |
| Cc1nc(CNCC2CCOCC2)c(-c2ccc(OCCc3ccc(F)cc3)cc2)c(-c2ccc3c(c2)CCCO3)c1[C@H](OC(C)(C)C)C(=O)O [Example 11, (S)-2-(tert-Butoxy)-2-(4-(chroman-6-yl)-5-(4-(4-fluorophenethoxy)phenyl)-2-methyl-6-((((tetrahydro-2H-pyran-4-yl)methyl)amino)methyl)pyridin-3-yl)acetic Acid] | < 0.1 |
| CCOCCOCCOCc1nc(C)c([C@H](OC(C)(C)C)C(=O)O)c(-c2ccc3c(c2)CCCO3)c1-c1ccc(OCCc2ccc(F)cc2)cc1 [Example 18, (S)-2-(tert-Butoxy)-2-(4-(chroman-6-yl)-6-((2-(2-ethoxyethoxy)ethoxy)methyl)-5-(4-(4-fluorophenethoxy)phenyl)-2-methylpyridin-3-yl)acetic Acid] | < 0.1 |
| Cc1nc(C)c([C@H](OC(C)(C)C)C(=O)O)c(-c2ccc3c(c2)CCCO3)c1-c1ccc2c(c1)CCN(CCCc1ccc(F)cc1)C2 [Example 31, (S)-2-(tert-Butoxy)-2-(4-(chroman-6-yl)-5-(2-(3-(4-fluorophenyl)propyl)-1,2,3,4-tetrahydroisoquinolin-6-yl)-2,6-dimethylpyridin-3-yl)acetic Acid] | < 0.1 |
| Cc1cccc(F)c1CN1CCc2cc(-c3c(CCCC4CCOCC4)nc(C)c([C@H](OC(C)(C)C)C(=O)O)c3-c3ccc4c(c3)CCCO4)ccc2C1 [Example 68, (S)-2-(tert-Butoxy)-2-(4-(chroman-6-yl)-5-(2-(2-fluoro-6-methylbenzyl)-1,2,3,4-tetrahydroisoquinolin-6-yl)-2-methyl-6-(3-(tetrahydro-2H-pyran-4-yl)propyl)pyridin-3-yl)acetic Acid] | < 0.1 |
| CCOCCOCc1nc(C)c([C@H](OC(C)(C)C)C(=O)O)c(-c2ccc3c(c2)CCCO3)c1-c1ccc(OCCc2ccc(F)cc2)cc1 [Example 17, (S)-2-(tert-Butoxy)-2-(4-(chroman-6-yl)-6-((2-ethoxyethoxy)methyl)-5-(4-(4-fluorophenethoxy)phenyl)-2-methylpyridin-3-yl)acetic Acid] | < 0.1 |
| Cc1ccc(-c2c(-c3ccc4c(c3)CCN(Cc3c(C)cccc3F)C4)c(C)nc(C)c2[C@H](OC(C)(C)C)C(=O)O)cc1 [Example 41, (S)-2-(tert-Butoxy)-2-(5-(2-(2-fluoro-6-methylbenzyl)-1,2,3,4-tetrahydroisoquinolin-6-yl)-2,6-dimethyl-4-(p-tolyl)pyridin-3-yl)acetic Acid] | < 0.1 |

Same assay, conditions: Human immunodeficiency virus 1, MT2, 120 h, read-out: EC50 μM

| SMILES | EC50 [µM] |
| --- | --- |
| Cc1nc(C)c([C@H](OC(C)(C)C)C(=O)O)c(-c2ccc3c(c2)CCCO3)c1-c1ccc2c(c1)CCNC2 [Example 21, (S)-2-(tert-Butoxy)-2-(4-(chroman-6-yl)-2,6-dimethyl-5-(1,2,3,4-tetrahydroisoquinolin-6-yl)pyridin-3-yl)acetic acid] | 7.77 |
| COc1ccc(COc2ccc(-c3c(C)nc(C)c([C@H](OC(C)(C)C)C(=O)O)c3-c3ccc(Cl)cc3)cc2)cc1 [Example 2, (S)-2-(tert-Butoxy)-2-(4-(4-chlorophenyl)-5-(4-((4-methoxybenzyl)oxy)phenyl)-2,6-dimethylpyridin-3-yl)acetic Acid] | 0.073 |
| COc1ccc(COc2ccc(-c3c(C)nc(C)c([C@H](OC(C)(C)C)C(=O)O)c3-c3ccc(C)cc3)cc2)cc1 [Example 3, (S)-2-(tert-Butoxy)-2-(5-(4-((4-methoxybenzyl)oxy)phenyl)-2,6-dimethyl-4-(p-tolyl)pyridin-3-yl)acetic Acid] | 0.196 |
| CCOc1ccc(-c2c(C)nc(C)c([C@H](OC(C)(C)C)C(=O)O)c2-c2cc(F)c3c(c2C)CCCO3)cc1 [Example 7, (2S)-2-(tert-Butoxy)-2-(5-(4-ethoxyphenyl)-4-(8-fluoro-5-methylchroman-6-yl)-2,6-dimethylpyridin-3-yl)acetic Acid] | 0.545 |

From patent US10106504B2, “Pyridin-3-yl acetic acid derivatives as inhibitors of human immunodeficiency virus replication” (priority 2015, dated 2018)
